Measured values published in patent US11970497B2, “Tricyclic AKR1C3 dependent KARS inhibitors” (Novartis AG, priority 2019, dated 2024).
Read-outs that look alike come from different tables or passages of the source.

Key:
[1] = system: H460 (NRF2 pathway mutant cell line with high AKR1C3 expression); test: In vitro cell proliferation assay (CellTiter-Glo), H460; assay type: cell-based; conditions: Homo sapiens, NCI-H460, 72 h, read-out: H460 Qualified absolute AC50
Method in brief: (§1)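 Cells seeded day 1 (H460 800/well, Hara 2000/well) in RPMI-1640 with 10% FBS; compounds added day 2 as 8-point 1:5 dilutions from 10 μM top. After 3 days at 37 °C, viability read by CellTiter-Glo luminescence, normalized to DMSO and MG132 (30 μM) controls to derive percentage activity and AC50.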

[2] = system: Hara (NRF2 pathway wild type cell line with low AKR1C3 expression); test: In vitro cell proliferation assay (CellTiter-Glo), Hara; assay type: cell-based; conditions: 72 h, read-out: HARA Qualified absolute AC50
Method in brief: as §1

[3] = target: T1, Human KARS (Homo sapiens, UniProt Q15046); test: KARS AMP Transcreener FP assay; assay type: biochemical; conditions: 50 nM human KARS, 20 μM ATP, 50 μM L-Lysine, 1 μM tRNA, 2 h at RT; read-out: Human KARS Transcreener AMP assay Qualified absolute AC50
T1 construct: Human KARS protein (residues 70-584) was expressed and purified; made in house
T1 sequence (Q15046 70-584): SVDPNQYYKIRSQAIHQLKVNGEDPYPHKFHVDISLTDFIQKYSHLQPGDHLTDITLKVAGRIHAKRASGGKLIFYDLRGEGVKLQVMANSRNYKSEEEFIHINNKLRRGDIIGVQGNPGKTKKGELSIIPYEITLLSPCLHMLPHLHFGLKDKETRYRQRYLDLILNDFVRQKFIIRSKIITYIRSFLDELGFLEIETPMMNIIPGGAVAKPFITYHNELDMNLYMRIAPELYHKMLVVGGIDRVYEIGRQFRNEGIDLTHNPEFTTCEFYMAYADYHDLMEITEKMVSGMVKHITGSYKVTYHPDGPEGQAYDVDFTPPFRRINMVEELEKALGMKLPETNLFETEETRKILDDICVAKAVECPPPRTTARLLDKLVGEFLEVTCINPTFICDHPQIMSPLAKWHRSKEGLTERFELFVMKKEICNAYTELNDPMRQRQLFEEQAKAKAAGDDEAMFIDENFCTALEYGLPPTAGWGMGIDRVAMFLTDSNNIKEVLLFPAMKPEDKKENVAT
Source text: KARS AMP Transcreener FP Assay to Measure Inhibition of KARS Enzymatic Activity
Lysine-tRNA synthetase (KARS) is an enzyme that catalyzes the reaction of ATP, L-lysine, and tRNA(Lys) to form AMP, diphosphate, and L-lysyl-tRNA(Lys).
The Transceener® AMP/GMP (BellBrook Labs, Madison, WI, USA) is a far red, competitive fluorescence polarization (FP) immunoassay based on the detection of AMP, which is one of the products of aminoacylation of tRNA. In this assay, a fluorescently labeled AMP (AMP Alexa Fluor 633) is used as the tracer that can be recognized by a specific antibody. In the absence of AMP, all the tracer molecules are bound to the antibodies leading to large polarization. The AMP product generated by the enzyme reaction will compete with the tracer for binding to the antibody which leads to a decrease in the polarization. As such, the enzyme activity is inversely proportional to FP values.
Human KARS protein (residues 70-584) was expressed and purified using a similar protocol to what is described in literature (Crystal structure of tetrameric form of human lysyl-tRNA synthetase: Implications for multisynthetase complex formation Guo, M., Ignatov, M., Musier-Forsyth, K., Schimmel, P., Yang, X. L. (2008) Proc. Natl. Acad. Sci. Usa 105: 2331-2336).
The KARS enzyme assay was performed in a final volume of 10 μL per well of Corning Costar 384 well plate, flat bottom, black non-treated plate. The final assay concentration was 20 mM HEPES pH 7.5, 1 mM DTT, 50 nM human KARS, 20 μM ATP, 50 μM L-Lysine, 1 μM tRNA and 8 mM MgCl2. Compounds were serial diluted 1:3 in DMSO in a master plate to generate a 10 concentration points dose response with maximum concentration of 10 mM. 50 nL from compound master plate were spotted in each well of a 384 black plate (Corning 3573), and 5 μL of enzyme mixture containing 100 nM KARS diluted in assay buffer (20 mM HEPES pH 7.5 and 1 mM OTT) were added. The reaction was started by adding 5 μL of the substrate mixture containing 40 μM ATP (final 20 μM ATP), 100 μM L-Lysine (final 50 μM), 2 μM tRNA (final 1 μM), 16 mM MgCl2 (final 8 mM MgCl2) diluted in assay buffer (20 mM HEPES pH 7.5 and 1 mM OTT). The mixtures were mixed and incubated for 2 h at RT before the termination of the reaction.
Transcreener® stop and detection buffers were prepared (1× stop buffer [final: 0.5×], 2 nM Tracer [final: 1 nM] and 5 μg/ml anti-AMP antibody [final: 2.5 μg/ml] in deionized water) and 10 μL of the stop and detection mix were added to the reaction wells, mixed for a minute and centrifuged at 1000 rpm for 10 seconds. The plates were read after incubating at RT for 30-60 min using Infinite® M1000 with the following settings: Excitation wavelength: 635 nm; Emission wavelength: 680 nm. FP values of DMSO controls were used to normalize the data and calculate IC50s of compounds using the Helios Software suite.

[4] = H460 cells, 3 days, CellTiter-Glo, top concentration 10 μM
[5] = Hara cells, 3 days, CellTiter-Glo, top concentration 10 μM

AC50 [3]	Compound	AC50 [1, 4]	AC50 [2, 5]	AC50 [1]	AC50 [2]
23.5 nM	CN1c2ccc(F)cc2C(O)CC12CCN(C(=O)NCc1cc(NCCO)c(F)cc1F)CC2 (racemic) [Example 156, N-(2,4-difluoro-5-((2-hydroxyethyl)amino)benzyl)-6′-fluoro-4′-hydroxy-1′-methyl-3′,4′-dihydro-1′H-spiro[piperidine-4,2′-quinoline]-1-carboxamide]	49 nM	80 nM		
34.1 nM	NC(=O)c1cc(CNC(=O)N2CCC3(CC2)CC(O)c2cc(F)cc(F)c2N3)ccc1F (racemic) [Example 157, N-(3-carbamoyl-4-fluorobenzyl)-6′,8′-difluoro-4′-hydroxy-3′,4′-dihydro-1′H-spiro[piperidine-4,2′-quinoline]-1-carboxamide]	0.1 nM	2 nM		
42.1 nM	Nc1cc(CNC(=O)N2CCC3(CC2)CC(O)c2cc(F)ccc2N3)ccc1F (racemic) [Example 158, N-(3-amino-4-fluorobenzyl)-6′-fluoro-4′-hydroxy-3′,4′-dihydro-1′H-spiro[piperidine-4,2′-quinoline]-1-carboxamide]	33 nM	6 nM		
45.9 nM	O=C(NCc1ccc(F)c(CO)c1)N1CCC2(CC1)CC(O)c1cc(F)ccc1N2 (racemic) [Example 159, 6′-fluoro-N-(4-fluoro-3-(hydroxymethyl)benzyl)-4′-hydroxy-3′,4′-dihydro-1′H-spiro[piperidine-4,2′-quinoline]-1-carboxamide]	53 nM	67 nM		
47.2 nM	NC(=O)c1cc(CNC(=O)N2CCC3(CC2)CC(O)c2cc(F)ccc2N3)ccc1F (racemic) [Example 160, N-(3-carbamoyl-4-fluorobenzyl)-6′-fluoro-4′-hydroxy-3′,4′-dihydro-1′H-spiro[piperidine-4,2′-quinoline]-1-carboxamide]	0.4 nM	1 nM		
71.8 nM	CN1c2ccc(F)cc2C(O)CC12CCN(C(=O)NCc1ccc(F)c(CC(N)=O)c1)CC2 (racemic) [Example 161, N-(3-(2-amino-2-oxoethyl)-4-fluorobenzyl)-6′-fluoro-4′-hydroxy-1′-methyl-3′,4′-dihydro-1′H-spiro[piperidine-4,2′-quinoline]-1-carboxamide]	278 nM	91 nM		
73.7 nM	O=C(NC1CC(O)C1)c1cc(CNC(=O)N2CCC3(CC2)CC(O)c2cc(F)ccc2N3)ccc1F (racemic) [Example 162, 6′-fluoro-N-(4-fluoro-3-((3-hydroxycyclobutyl)carbamoyl)benzyl)-4′-hydroxy-3′,4′-dihydro-1′H-spiro[piperidine-4,2′-quinoline]-1-carboxamide]	47 nM			
98.4 nM	CN1c2ccc(F)cc2C(O)CC12CCN(C(=O)NCc1ccc(F)c(OCCO)c1)CC2 (racemic) [Example 163]	76 nM	11 nM		
	O=C1CC2(CCN(C(=O)NCc3cocn3)CC2)Nc2ccc(F)cc21 [Example 138, 6′-fluoro-N-(oxazol-4-ylmethyl)-4′-oxo-3′,4′-dihydro-1′H-spiro[piperidine4,2′-quinoline]-1-carboxamide]	2110 nM	> 10000 nM		
	CN1c2ccc(F)cc2C(=O)CC12CCN(C(=O)NCc1ccc(F)c(C(C)(C)O)c1)CC2 [Example 139, 6′-fluoro-N-(4-fluoro-3-(2-hydroxypropan-2-yl)benzyl)-1′-methyl-4′-oxo-3′,4′-dihydro-1′H-spiro[piperidine-4,2′-quinoline]-1-carboxamide]	2300 nM	8830 nM		
	CN1c2ccc(F)cc2C(=O)CC12CCN(C(=O)NCc1ccc(F)c(NCC(C)(C)C(=O)O)c1)CC2 [Example 140, 3-((2-fluoro-5-((6′-fluoro-1′-methyl-4′-oxo-3′,4′-dihydro-1′H-spiro[piperidine-4,2′-quinoline]-1-carboxamido)methyl)phenyl)amino)-2,2-dimethylpropanoic acid]			2340 nM	> 10000 nM
	O=C1CC2(CCN(C(=O)NCc3cccc4nonc34)CC2)Nc2ccc(F)cc21 [Example 141, N-(benzo[c][1,2,5]oxadiazol-4-ylmethyl)-6′-fluoro-4′-oxo-3′,4′-dihydro-1′H-spiro[piperidine-4,2′-quinoline]-1-carboxamide]	2450 nM	> 10000 nM		
	Cc1cc(F)cc2c1NC1(CCN(C(=O)NCc3ccc(F)c(C(N)=O)c3)CC1)CC2=O [Example 142, N-(3-carbamoyl-4-fluorobenzyl)-6′-fluoro-8′-methyl-4′-oxo-3′,4′-dihydro-1′H-spiro[piperidine4,2′-quinoline]-1-carboxamide]	2450 nM	> 10000 nM		
	CCCNC(=O)c1cc(CNC(=O)N2CCC3(CC2)CC(=O)c2cc(F)ccc2N3)ccc1F [Example 143, 6′-fluoro-N-(4-fluoro-3-(propylcarbamoyl)benzyl)-4′-oxo-3′,4′-dihydro-1′H-spiro[piperidine-4,2′-quinoline]-1-carboxamide]	2620 nM	> 10000 nM		
	O=C1CC2(CCN(C(=O)NCc3cccc(-n4cncn4)c3)CC2)Nc2c(F)cc(F)cc21 [Example 144, N-(3-(1H-1,2,4-triazol-1-yl)benzyl)-6′,8′-difluoro-4′-oxo-3′,4′-dihydro-1′H-spiro[piperidine-4,2′-quinoline]-1-carboxamide]	3050 nM	> 10000 nM		
	Cn1cc(CNC(=O)N2CCC3(CC2)CC(=O)c2cc(F)ccc2N3)cn1 [Example 145, 6′-fluoro-N-((1-methyl-1H-pyrazol-4-yl)methyl)-4′-oxo-3′,4′-dihydro-1′H-spiro[piperidine-4,2′-quinoline]-1-carboxamide]	3500 nM	6060 nM		
	O=C1CC2(CCN(C(=O)NCc3ccc(F)c(CNCCO)c3)CC2)Nc2ccc(F)cc21 [Example 146, 6′-fluoro-N-(4-fluoro-3-(((2-hydroxyethyl)amino)methyl)benzyl)-4′-oxo-3′,4′-dihydro-1′H-spiro[piperidine-4,2′-quinoline]-1-carboxamide]	3650 nM	2790 nM		
	NS(=O)(=O)Cc1cc(CNC(=O)N2CCC3(CC2)CC(=O)c2cc(F)ccc2N3)ccc1F [Example 147, 6′-fluoro-N-(4-fluoro-3-(sulfamoylmethyl)benzyl)-4′-oxo-3′,4′-dihydro-1′H-spiro[piperidine-4,2′-quinoline]-1-carboxamide]	3960 nM	> 10000 nM		
	CN1c2ccc(F)cc2C(=O)CC12CCN(C(=O)NCc1ccc(F)c([C@@H](N)C(F)(F)F)c1)CC2 [Example 149, (R)—N-(3-(1-amino-2,2,2-trifluoroethyl)-4-fluorobenzyl)-6′-fluoro-1′-methyl-4′-oxo-3′,4′-dihydro-1′H-spiro[piperidine-4,2′-quinoline]-1-carboxamide]	5430 nM	> 10000 nM		
	O=C1CC2(CCN(C(=O)NCc3ccc(OC(F)F)cc3)CC2)Nc2c(F)cc(F)cc21 [Example 150, N-(4-(difluoromethoxy)benzyl)-6′,8′-difluoro-4′-oxo-3′,4′-dihydro-1′H-spiro[piperidine-4,2′-quinoline]-1-carboxamide]	6270 nM	2620 nM		
